Assay [1] deals with T1, human SLC6A19 and TMEM27 (Homo sapiens, UniProt Q695T7).
T1 construct: expressed in transfected cells
T1 sequence (Q695T7 1-634): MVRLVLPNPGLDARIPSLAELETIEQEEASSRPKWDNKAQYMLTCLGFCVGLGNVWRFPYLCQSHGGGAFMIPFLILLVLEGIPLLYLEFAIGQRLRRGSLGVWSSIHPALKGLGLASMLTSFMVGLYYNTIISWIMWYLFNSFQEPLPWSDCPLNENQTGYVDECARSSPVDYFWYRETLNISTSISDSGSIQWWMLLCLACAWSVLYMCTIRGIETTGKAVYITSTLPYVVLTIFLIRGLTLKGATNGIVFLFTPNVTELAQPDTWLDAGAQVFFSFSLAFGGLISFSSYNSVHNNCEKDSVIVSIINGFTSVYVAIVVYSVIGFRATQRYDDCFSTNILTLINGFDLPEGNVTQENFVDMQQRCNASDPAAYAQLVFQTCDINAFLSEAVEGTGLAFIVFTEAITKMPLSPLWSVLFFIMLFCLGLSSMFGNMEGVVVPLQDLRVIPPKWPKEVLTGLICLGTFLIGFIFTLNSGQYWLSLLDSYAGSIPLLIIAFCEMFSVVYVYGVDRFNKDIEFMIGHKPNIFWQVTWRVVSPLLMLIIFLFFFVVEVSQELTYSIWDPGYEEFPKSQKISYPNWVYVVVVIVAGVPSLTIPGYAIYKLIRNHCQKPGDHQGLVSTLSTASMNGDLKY
T1 sequence (Q9HBJ8 15-222 partner): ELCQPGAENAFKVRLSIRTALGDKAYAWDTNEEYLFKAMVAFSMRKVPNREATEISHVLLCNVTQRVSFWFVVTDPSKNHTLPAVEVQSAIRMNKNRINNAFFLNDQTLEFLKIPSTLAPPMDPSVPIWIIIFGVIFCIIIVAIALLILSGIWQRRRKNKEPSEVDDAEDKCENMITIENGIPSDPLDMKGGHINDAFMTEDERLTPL
The experiment in a line: Radiolabelled (3H) leucine uptake in CHO cells with doxycycline-inducible expression of human SLC6A19 and TMEM27 (Example B-1). Format: cell-based. Particulars: CHO cells with doxycycline-inducible expression of human SLC6A19 and TMEM27, read-out: SLC6A19_Radioligand Uptake Assay IC50. The method, boiled down: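 CHO cells were induced with doxycycline for 18 h at 37 °C, washed in HBSS, then exposed to compounds for 1 h: 8-point, 3-fold dilutions in duplicate, 0.5% DMSO final. Uptake measured by scintillation counting after 2 h shaking. Activity normalized with positive control as 0% and DMSO as 100%.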

The target in assay [2] is T1, human SLC6A19 and TMEM27. In words: 13C6,15N-isoleucine uptake in CHO cells with doxycycline-inducible expression of human SLC6A19 and TMEM27, RapidFire mass spectrometry (Example B-2). The settings on record: read-out: SLC6A19_RapidFire Uptake Assay IC50. Format: cell-based. An outline of the steps: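 CHO cells induced overnight with doxycycline to express human SLC6A19 plus TMEM27; 20 min preincubation with compound (10-point 2-fold series, duplicate) at 37 °C in HEPES buffer pH 7.2, then 20 min with 13C6,15N-isoleucine. Intracellular label quantified by RapidFire MS against 13C-leucine standard; positive control defined 100% inhibition.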

For the compound `CC(=O)NCc1cc2cc(F)c(OCc3coc(C)n3)cc2[nH]1` [Compound 236, N-((5-fluoro-6-((2-methyloxazol-4-yl)methoxy)-1H-indol-2-yl)methyl)acetamide], the IC50 (in general, the point on the concentration scale where inhibition reaches its midpoint) is 2990 nM on human SLC6A19 and TMEM27 [1]; over 19300 nM at human SLC6A19 and TMEM27 [2].
The like results for `CC1(C(=O)NCc2cc3cc(Cl)c(OCc4cscn4)cc3[nH]2)CC1` [Compound 184, N-((5-chloro-6-(thiazol-4-ylmethoxy)-1H-indol-2-yl)methyl)-1-methylcyclopropane-1-carboxamide] were, in that order, 144 nM and 59 nM.
Consider `Cc1cc(COc2cc3[nH]c(CNC(=O)C4(C)CC4)cc3cc2F)on1` [Compound 12, N-((5-fluoro-6-((3-methylisoxazol-5-yl)methoxy)-1H-indol-2-yl)methyl)-1-methylcyclopropane-1-carboxamide], for which the half-inhibitory concentration (IC50) at human SLC6A19 and TMEM27 [1] was found to be 79 nM; at human SLC6A19 and TMEM27 [2] it was 144 nM.
The like results for `CC(=O)NCc1cc2cc(Cl)c(OCc3ccno3)cc2[nH]1` [Compound 219, N-((5-chloro-6-(isoxazol-5-ylmethoxy)-1H-indol-2-yl)methyl)acetamide] were, in that order, 134 nM and 103 nM.
For the compound `O=C(NCc1cc2ccc(OCc3ccon3)cc2[nH]1)N1CCC1` [Compound 122, N-((6-(isoxazol-3-ylmethoxy)-1H-indol-2-yl)methyl)azetidine-1-carboxamide], the IC50 was found to be 360 nM at human SLC6A19 and TMEM27 [1]; 783 nM at human SLC6A19 and TMEM27 [2].
For `CC(C)C(=O)NCc1cc2cc(F)c(OCc3cocn3)cc2[nH]1` [Compound 501, N-((5-fluoro-6-(oxazol-4-ylmethoxy)-1H-indol-2-yl)methyl)isobutyramide], in that order: 312 nM and 1300 nM.
The like results for `O=C(NCc1cc2cc(OC(F)(F)F)c(OCc3cscn3)cc2[nH]1)N1CCC1` [Compound 421, N-((6-(thiazol-4-ylmethoxy)-5-(trifluoromethoxy)-1H-indol-2-yl)methyl)azetidine-1-carboxamide] were, in that order, 359 nM and 131 nM.
`O=C(NCc1cc2cc(F)c(OCc3cscn3)cc2[nH]1)C1(F)CC1` [Compound 230, 1-fluoro-N-((5-fluoro-6-(thiazol-4-ylmethoxy)-1H-indol-2-yl)methyl)cyclopropane-1-carboxamide]: the IC50 at human SLC6A19 and TMEM27 [1] was determined as 69.6 nM; on human SLC6A19 and TMEM27 [2], 22.9 nM.
Turning to `Cn1ncc(COc2cc3[nH]c(CNC(=O)C4CC4)cc3cc2Cl)n1` [Compound 498, N-((5-chloro-6-((2-methyl-2H-1,2,3-triazol-4-yl)methoxy)-1H-indol-2-yl)methyl)cyclopropanecarboxamide], the IC50 was determined as 159 nM on human SLC6A19 and TMEM27 [1]; 90.2 nM on human SLC6A19 and TMEM27 [2].
The like results for `CC1(C(=O)NCc2cc3c(F)cc(OCc4cscn4)cc3[nH]2)CC1` [Compound 29, N-((4-fluoro-6-(thiazol-4-ylmethoxy)-1H-indol-2-yl)methyl)-1-methylcyclopropane-1-carboxamide] were, in that order, 60 nM and 45 nM.
Turning to `O=C(NCc1cc2cc(Cl)c(OCc3cscn3)cc2[nH]1)N1CCC1` [Compound 81, N-((5-chloro-6-(thiazol-4-ylmethoxy)-1H-indol-2-yl)methyl)azetidine-1-carboxamide], the IC50 amounted to 150 nM at human SLC6A19 and TMEM27 [1]; 166 nM on human SLC6A19 and TMEM27 [2].
As for `CC1(C(=O)NCc2cc3cc(Cl)c(OCc4csc(Cl)c4)cc3[nH]2)CC1` [Compound 324, N-((5-chloro-6-((5-chlorothiophen-3-yl)methoxy)-1H-indol-2-yl)methyl)-1-methylcyclopropane-1-carboxamide], the IC50 on human SLC6A19 and TMEM27 [1] was 1120 nM; at human SLC6A19 and TMEM27 [2], 476 nM.
The like results for `CN(Cc1cn[nH]c1)C(=O)NCc1cc2ccc(OCc3ccon3)cc2[nH]1` [Compound 627, 1-((1H-pyrazol-4-yl)methyl)-3-((6-(isoxazol-3-ylmethoxy)-1H-indol-2-yl)methyl)-1-methylurea] were, in that order, over 8730 nM and 12100 nM.
The like results for `CC1(C(=O)NCc2cc3cc(Cl)c(OCc4cccc(F)n4)cc3[nH]2)CC1` [Compound 32, N-((5-chloro-6-((6-fluoropyridin-2-yl)methoxy)-1H-indol-2-yl)methyl)-1-methylcyclopropane-1-carboxamide] were, in that order, 133 nM and 58 nM.
Take `CC1(C(=O)NCc2cc3ccc(SCc4ccon4)cc3[nH]2)CC1` [Compound 196, N-((6-((isoxazol-3-ylmethyl)thio)-1H-indol-2-yl)methyl)-1-methylcyclopropanecarboxamide]: the IC50 at human SLC6A19 and TMEM27 [1] turned out to be 207 nM; on human SLC6A19 and TMEM27 [2], 460 nM.
As to `CC1(C(=O)NCc2cc3cc(Cl)c(OCc4c(F)ccnc4Cl)cc3[nH]2)CC1` [Compound 351, N-((5-chloro-6-((2-chloro-4-fluoropyridin-3-yl)methoxy)-1H-indol-2-yl)methyl)-1-methylcyclopropane-1-carboxamide], the IC50 at human SLC6A19 and TMEM27 [1] was determined as 2470 nM; on human SLC6A19 and TMEM27 [2], 1540 nM.
With `CNC(=O)NCc1cc2cc(F)c(OCc3cscn3)cc2[nH]1` [Compound 214, 1-((5-fluoro-6-(thiazol-4-ylmethoxy)-1H-indol-2-yl)methyl)-3-methylurea], the IC50 at human SLC6A19 and TMEM27 [1] is 152 nM; on human SLC6A19 and TMEM27 [2] it was 193 nM.
The like results for `CC1CN(C(=O)NCc2cc3cc(F)c(OCc4cscn4)cc3[nH]2)C1` [Compound 357, N-((5-fluoro-6-(thiazol-4-ylmethoxy)-1H-indol-2-yl)methyl)-3-methylazetidine-1-carboxamide] were, in that order, 413 nM and 434 nM.
For `Cc1nc(COc2cc3[nH]c(CNC(=O)C4CC4)cc3cc2F)co1` [Compound 549, N-((5-fluoro-6-((2-methyloxazol-4-yl)methoxy)-1H-indol-2-yl)methyl)cyclopropanecarboxamide], in that order: 426 nM and 833 nM.
With `O=C(NCc1cc2cc(C(F)(F)F)c(OCc3cscn3)cc2[nH]1)N1CCCC1` [Compound 479, N-((6-(thiazol-4-ylmethoxy)-5-(trifluoromethyl)-1H-indol-2-yl)methyl)pyrrolidine-1-carboxamide], the IC50 on human SLC6A19 and TMEM27 [1] was 1670 nM; at human SLC6A19 and TMEM27 [2], 545 nM.
Take `CC(=O)NCc1cc2cc(C)c(OCc3cscn3)cc2[nH]1` [Compound 234, N-((5-methyl-6-(thiazol-4-ylmethoxy)-1H-indol-2-yl)methyl)acetamide]: the 50% inhibitory concentration (IC50) at human SLC6A19 and TMEM27 [1] was 360 nM; on human SLC6A19 and TMEM27 [2], 455 nM.
The like results for `CC1(C(=O)NCc2cc3cc(C(F)F)c(OCc4cscn4)cc3[nH]2)CC1` [Compound 645, N-((5-(difluoromethyl)-6-(thiazol-4-ylmethoxy)-1H-indol-2-yl)methyl)-1-methylcyclopropane-1-carboxamide] were, in that order, 955 nM and 524 nM.
On to `CC(=O)NCc1cc2cc(Cl)c(OCc3cnn(C)n3)cc2[nH]1` [Compound 221, N-((5-chloro-6-((2-methyl-2H-1,2,3-triazol-4-yl)methoxy)-1H-indol-2-yl)methyl)acetamide], for which the IC50 at human SLC6A19 and TMEM27 [1] is 288 nM; at human SLC6A19 and TMEM27 [2], 468 nM.
Regarding `O=C(NCc1cc2cc(Cl)c(OCc3ccccn3)cc2[nH]1)C1CC1` [Compound 503, N-((5-chloro-6-(pyridin-2-ylmethoxy)-1H-indol-2-yl)methyl)cyclopropanecarboxamide], the IC50 on human SLC6A19 and TMEM27 [1] stood at 317 nM; at human SLC6A19 and TMEM27 [2] it was 66.7 nM.
For `Cc1nc(COc2cc3[nH]c(CNC(=O)C4(C)CC4)cc3cc2F)co1` [Compound 547, N-((5-fluoro-6-((2-methyloxazol-4-yl)methoxy)-1H-indol-2-yl)methyl)-1-methylcyclopropane-1-carboxamide], the IC50 at human SLC6A19 and TMEM27 [1] was determined as 363 nM; at human SLC6A19 and TMEM27 [2], 314 nM.
The like results for `CC1(C(=O)NCc2cc3cc(Cl)c(OCc4cnsc4)cc3[nH]2)CC1` [Compound 69, N-((5-chloro-6-(isothiazol-4-ylmethoxy)-1H-indol-2-yl)methyl)-1-methylcyclopropane-1-carboxamide] were, in that order, 148 nM and 78 nM.
The like results for `CC1(C(=O)NCc2cc3cc(Cl)c(OCc4cccs4)cc3[nH]2)CC1` [Compound 65, N-((5-chloro-6-(thiophen-2-ylmethoxy)-1H-indol-2-yl)methyl)-1-methylcyclopropane-1-carboxamide] were, in that order, 152 nM and 46 nM.

These data come from US20240199546A1, “INHIBITORS OF SOLUTE CARRIER FAMILY 6A MEMBER 19 (SLC6A19) AND METHODS OF USE THEREOF” (Maze Therapeutics, Inc., priority 2022, published 2024).
